The results in this text go back to patent publication US12606561B2, “Substituted pyrazolo[1,5-a][1,3,5]triazines as CDK inhibitors” (QURIENT CO., LTD., priority 2018, dated 2026).

What is called IC50 is the concentration that inhibits the measured activity by half.

Where only a bound is given, the exact number is not on record here.

One assay has as its target T1, CDK1/Cyclin B (Homo sapiens, UniProt P06493).
T1 construct: purchased Invitrogen PR4768C
The experiment in a line: Enzymatic assay for CDK1 (LANCE Ultra kinase assay, FRET based). The conditions noted are these: ATP at Km; read-out: CDK1 enzymatic activity IC50. The format is biochemical. Summed up:
(§1)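 Kinase activity of each purified CDK/cyclin complex was followed in a FRET format where a Europium anti-phospho-antibody recognises phosphorylated ULight-labeled peptide. ATP was held at its Km.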

The next assay concerns the target T2, CDK2/Cyclin A (Homo sapiens, UniProt P24941).
T2 construct: purchased Invitrogen PV6290
The experiment in a line: Enzymatic assay for CDK2 (LANCE Ultra kinase assay, FRET based). The class given is biochemical. The conditions noted are these: ATP at Km. Summed up:
(§2)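 Compounds tested as 8 doses in 4-fold steps against CDK2/Cyclin A ([…]) or CDK5/p25 ([…]), with ATP at its Km and 68 nM ULight-MBP substrate. After 60 min at 23° C., EDTA plus Eu-labelled anti-phospho-MBP added; TR-FRET (615/665 nm) read after another 60 min.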
(In TR-FRET formats the signal depends on donor and acceptor labels being close together.)

The next assay concerns the target T3, CDK5/p25 (Homo sapiens, UniProt Q00535).
T3 construct: purchased Invitrogen PR8543B
In words: Enzymatic assay for CDK5 (LANCE Ultra kinase assay, FRET based). The class given is biochemical. Conditions: ATP at Km. Summed up: as §2

The next assay concerns the target T4, CDK7/Cyclin H/MNAT1 (Homo sapiens, UniProt P50613).
T4 construct: purchased Invitrogen PR6749B
The experiment in a line: Enzymatic assay for CDK7 (LANCE Ultra kinase assay, FRET based). The class given is biochemical. The conditions noted are these: for IC50: ATP at Km. Summed up: as §1

The test system of another assay is A2780. The experiment in a line: A2780 viability assay (CellTiter-Glo, 72 hours). The conditions noted are these: Homo sapiens; A2780 cells. The format is cell-based. Summed up:
(§3)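 Each line was plated at its own density (1×10^4, 5×10^3 and 1×10^3 cells/well for MV4-11, OVCAR-3 and A2780 respectively) in RPMI-1640 with 10% FBS. Treatment with compound, 0.0015 uM to 10 uM and DMSO under 0.1%, lasted 72 h. Surviving cells were quantified by CellTiter-Glo.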

The next assay deals with OVCAR-3. In words: OVCAR-3 viability assay (CellTiter-Glo, 72 hours). The class given is cell-based. The conditions noted are these: Homo sapiens; OVCAR-3 cells. Summed up:
as §3
Background: Cellular ATP, detected with luciferase, serves as a proxy for viable cell number.

T3 sequence (Q00535 whole entry): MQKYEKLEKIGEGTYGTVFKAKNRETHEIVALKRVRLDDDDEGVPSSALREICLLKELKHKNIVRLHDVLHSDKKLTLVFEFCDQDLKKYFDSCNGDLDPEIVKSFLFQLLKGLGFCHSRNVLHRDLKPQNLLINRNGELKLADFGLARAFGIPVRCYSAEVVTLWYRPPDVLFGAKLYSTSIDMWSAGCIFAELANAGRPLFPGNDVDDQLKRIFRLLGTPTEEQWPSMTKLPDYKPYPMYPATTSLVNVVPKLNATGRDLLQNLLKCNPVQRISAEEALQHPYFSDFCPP
T3 sequence (Q15078 99-307 partner limits assumed): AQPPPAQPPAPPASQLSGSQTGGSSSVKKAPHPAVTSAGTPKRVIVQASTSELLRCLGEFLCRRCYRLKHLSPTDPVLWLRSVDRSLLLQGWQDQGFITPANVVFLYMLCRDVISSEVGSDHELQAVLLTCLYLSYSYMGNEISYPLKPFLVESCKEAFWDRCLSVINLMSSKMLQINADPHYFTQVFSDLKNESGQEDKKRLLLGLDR
T1 sequence (P06493 whole entry): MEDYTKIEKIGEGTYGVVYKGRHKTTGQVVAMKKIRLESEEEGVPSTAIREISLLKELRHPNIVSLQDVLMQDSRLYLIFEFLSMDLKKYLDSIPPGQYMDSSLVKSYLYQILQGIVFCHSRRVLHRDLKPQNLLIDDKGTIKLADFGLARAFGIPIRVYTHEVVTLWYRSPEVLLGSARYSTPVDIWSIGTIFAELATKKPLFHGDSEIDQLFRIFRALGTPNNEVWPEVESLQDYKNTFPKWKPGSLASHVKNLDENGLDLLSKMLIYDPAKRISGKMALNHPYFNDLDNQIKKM
T1 sequence (P14635 whole entry partner): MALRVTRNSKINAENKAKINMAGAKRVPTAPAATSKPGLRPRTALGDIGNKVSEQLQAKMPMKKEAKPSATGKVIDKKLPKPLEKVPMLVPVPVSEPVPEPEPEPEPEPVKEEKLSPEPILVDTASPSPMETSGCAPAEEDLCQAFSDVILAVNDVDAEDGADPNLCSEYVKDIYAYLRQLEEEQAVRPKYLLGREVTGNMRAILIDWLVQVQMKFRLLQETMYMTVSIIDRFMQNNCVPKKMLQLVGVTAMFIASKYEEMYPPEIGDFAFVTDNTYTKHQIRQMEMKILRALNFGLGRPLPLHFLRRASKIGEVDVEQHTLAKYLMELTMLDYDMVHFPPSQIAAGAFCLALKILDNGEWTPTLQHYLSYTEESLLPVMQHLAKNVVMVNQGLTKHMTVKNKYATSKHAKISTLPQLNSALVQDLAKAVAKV
T4 sequence (P50613 whole entry): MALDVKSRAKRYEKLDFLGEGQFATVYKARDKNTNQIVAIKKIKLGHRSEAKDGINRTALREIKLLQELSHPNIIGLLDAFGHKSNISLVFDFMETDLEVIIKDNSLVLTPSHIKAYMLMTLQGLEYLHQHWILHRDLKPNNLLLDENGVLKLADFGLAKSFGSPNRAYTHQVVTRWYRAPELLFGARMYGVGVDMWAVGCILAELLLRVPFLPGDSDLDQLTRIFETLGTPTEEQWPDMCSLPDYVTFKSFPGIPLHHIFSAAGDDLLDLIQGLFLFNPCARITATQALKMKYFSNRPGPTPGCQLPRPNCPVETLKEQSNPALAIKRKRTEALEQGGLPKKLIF
T4 sequence (P51946 whole entry partner): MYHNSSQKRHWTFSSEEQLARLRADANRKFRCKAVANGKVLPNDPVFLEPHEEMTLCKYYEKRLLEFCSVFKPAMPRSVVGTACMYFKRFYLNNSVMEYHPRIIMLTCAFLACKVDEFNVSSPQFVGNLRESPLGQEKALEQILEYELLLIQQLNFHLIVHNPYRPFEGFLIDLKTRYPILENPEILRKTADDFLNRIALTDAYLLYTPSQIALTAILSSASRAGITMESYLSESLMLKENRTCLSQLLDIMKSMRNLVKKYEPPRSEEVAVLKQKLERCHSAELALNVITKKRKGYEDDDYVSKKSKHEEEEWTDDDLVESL
T4 sequence (P51948 whole entry partner): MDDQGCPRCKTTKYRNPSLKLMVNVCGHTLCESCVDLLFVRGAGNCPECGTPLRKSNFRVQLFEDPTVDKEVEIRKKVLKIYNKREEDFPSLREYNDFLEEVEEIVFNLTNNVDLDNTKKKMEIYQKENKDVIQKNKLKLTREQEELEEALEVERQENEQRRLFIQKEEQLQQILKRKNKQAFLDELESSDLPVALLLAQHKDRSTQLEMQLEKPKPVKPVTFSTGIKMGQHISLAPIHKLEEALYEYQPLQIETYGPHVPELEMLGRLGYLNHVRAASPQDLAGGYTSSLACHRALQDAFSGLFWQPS

With `CC(C)c1cnn2c(NCc3ccccc3-c3nccc4cc(NC(=O)/C=C/CN(C)C)ccc34)nc(NC3CCC(F)(F)CC3)nc12` [Compound 147], the IC50 at CDK1/Cyclin B is over 1000 nM; against CDK2/Cyclin A, over 1000 nM; on CDK5/p25 it was over 1000 nM; at CDK7/Cyclin H/MNAT1, under 100 nM; in the assay on A2780, under 1000 nM; in the assay with OVCAR-3, under 1000 nM. Moreover, the “CDK1/CDK7: Selectivity of CDK7 inhibition over CDK1 inhibition” value on CDK7/Cyclin H/MNAT1 is “A (A indicates [fold] > 500)”. Also, the “CDK2/CDK7: Selectivity of CDK7 inhibition over CDK2 inhibition” value at CDK7/Cyclin H/MNAT1 is “A (A indicates [fold] > 500)”. The “CDK5/CDK7: Selectivity of CDK7 inhibition over CDK5 inhibition” value on CDK7/Cyclin H/MNAT1 was “A (A indicates [fold] > 500)”.
As to `C=C(F)C(=O)Nc1ccc2c(-c3ccccc3CNc3nc(NC[C@H]4CCN(CC)C[C@@H]4O)nc4c(C(C)C)cnn34)nccc2c1` [Compound 169], the IC50 was over 1000 nM on CDK1/Cyclin B; over 1000 nM against CDK2/Cyclin A; over 1000 nM against CDK5/p25; under 100 nM against CDK7/Cyclin H/MNAT1; under 1000 nM with A2780; under 1000 nM with OVCAR-3. In addition, the “CDK1/CDK7: Selectivity of CDK7 inhibition over CDK1 inhibition” value at CDK7/Cyclin H/MNAT1 was “B (B indicates 50 < [fold] ≤ 500)”. In addition, the “CDK2/CDK7: Selectivity of CDK7 inhibition over CDK2 inhibition” value on CDK7/Cyclin H/MNAT1 was “B (B indicates 50 < [fold] ≤ 500)”. Moreover, the “CDK5/CDK7: Selectivity of CDK7 inhibition over CDK5 inhibition” value on CDK7/Cyclin H/MNAT1 is “B (B indicates 50 < [fold] ≤ 500)”.
With `C=C(F)C(=O)Nc1ccc2c(-c3ccccc3CNc3nc(NC[C@H]4CCN(C(C)C)C[C@@H]4O)nc4c(C(C)C)cnn34)nccc2c1` [Compound 168], the IC50 was over 1000 nM on CDK1/Cyclin B; over 1000 nM against CDK2/Cyclin A; over 1000 nM against CDK5/p25; under 100 nM against CDK7/Cyclin H/MNAT1; under 1000 nM in the assay on A2780; under 1000 nM with OVCAR-3. In addition, the “CDK1/CDK7: Selectivity of CDK7 inhibition over CDK1 inhibition” value at CDK7/Cyclin H/MNAT1 is “B (B indicates 50 < [fold] ≤ 500)”. In addition, on CDK7/Cyclin H/MNAT1, the “CDK2/CDK7: Selectivity of CDK7 inhibition over CDK2 inhibition” value was “B (B indicates 50 < [fold] ≤ 500)”. The “CDK5/CDK7: Selectivity of CDK7 inhibition over CDK5 inhibition” value at CDK7/Cyclin H/MNAT1 is “B (B indicates 50 < [fold] ≤ 500)”.
Take `C=C(F)C(=O)Nc1ccc2c(-c3ccccc3CNc3nc(NC4CCC(OC)C4)nc4c(C(C)C)cnn34)nccc2c1` (racemic) [Compound 98]: the IC50 was over 1000 nM at CDK1/Cyclin B; over 1000 nM against CDK2/Cyclin A; over 1000 nM against CDK5/p25; 100 to 1000 nM against CDK7/Cyclin H/MNAT1; under 1000 nM in the assay on A2780; under 1000 nM in the assay on OVCAR-3. Besides, the “CDK1/CDK7: Selectivity of CDK7 inhibition over CDK1 inhibition” value at CDK7/Cyclin H/MNAT1 is “B (B indicates 50 < [fold] ≤ 500)”. Moreover, at CDK7/Cyclin H/MNAT1, the “CDK2/CDK7: Selectivity of CDK7 inhibition over CDK2 inhibition” value was “B (B indicates 50 < [fold] ≤ 500)”. Further, the “CDK5/CDK7: Selectivity of CDK7 inhibition over CDK5 inhibition” value at CDK7/Cyclin H/MNAT1 was “B (B indicates 50 < [fold] ≤ 500)”.
Consider `C=C(F)C(=O)Nc1ccc2c(-c3ccccc3CNc3nc(NC4CCCNC4)nc4c(C(C)C)cnn34)nccc2c1` (stereo not drawn) [Compound 172], for which the IC50 was over 1000 nM on CDK1/Cyclin B; over 1000 nM at CDK2/Cyclin A; over 1000 nM at CDK5/p25; under 100 nM at CDK7/Cyclin H/MNAT1; under 1000 nM with A2780; under 1000 nM in the assay on OVCAR-3. Further, the “CDK1/CDK7: Selectivity of CDK7 inhibition over CDK1 inhibition” value on CDK7/Cyclin H/MNAT1 was “A (A indicates [fold] > 500)”. For the same compound, at CDK7/Cyclin H/MNAT1, the “CDK2/CDK7: Selectivity of CDK7 inhibition over CDK2 inhibition” value is “A (A indicates [fold] > 500)”. Moreover, the “CDK5/CDK7: Selectivity of CDK7 inhibition over CDK5 inhibition” value on CDK7/Cyclin H/MNAT1 is “A (A indicates [fold] > 500)”.
In the case of `C=C(F)C(=O)Nc1ccc2c(-c3ccccc3CNc3nc(-c4cccc(OC5CCNC5)c4)nc4c(C(C)C)cnn34)nccc2c1` (racemic) [Compound 87], the IC50 at CDK1/Cyclin B was over 1000 nM; at CDK2/Cyclin A, over 1000 nM; at CDK5/p25, over 1000 nM; on CDK7/Cyclin H/MNAT1, under 100 nM; in the assay with A2780 it was under 1000 nM; with OVCAR-3, under 1000 nM. For the same compound, the “CDK1/CDK7: Selectivity of CDK7 inhibition over CDK1 inhibition” value on CDK7/Cyclin H/MNAT1 was “A (A indicates [fold] > 500)”. Also, on CDK7/Cyclin H/MNAT1, the “CDK2/CDK7: Selectivity of CDK7 inhibition over CDK2 inhibition” value is “A (A indicates [fold] > 500)”. For the same compound, on CDK7/Cyclin H/MNAT1, the “CDK5/CDK7: Selectivity of CDK7 inhibition over CDK5 inhibition” value is “A (A indicates [fold] > 500)”.
